# Results as given in US20250352520A1, “USE OF DEXPRAMIPEXOLE FOR THE TREATMENT OF EOSINOPHILIC COPD” (Areteia Therapeutics, Inc., priority 2024, published 2025).
# Where two headings read alike, the source gives them in different places.
# Conditions: Week 16
# Protocol: Participants performed post-BD spirometry at specific visits as noted in the SOA.
# After completing the pre-BD spirometry, participants inhaled four puffs of albuterol/salbutamol (site sourced) metered dose inhaler (approximately 100 μg albuterol/salbutamol base per actuation), with each actuation 1 minute apart. Post-BD spirometry was assessed within 15 to 30 minutes after inhalation of albuterol/salbutamol.
# [1] = <50% AEC reduction at Week 16 (N = 4), 150 mg BID
# [2] = >=50% AEC reduction at Week 16 (N = 3), 150 mg BID
structure (smiles),measurement,setting,value
"CCCN[C@@H]1CCc2nc(N)sc2C1 [Dexpramipexole, (6R)-2-amino-4,5,6,7-tetrahydro-6-(propylamino)benzothiazole]","Post bronchodilator Peak Flow, Observed, Median",[1],324.5 L/min
same,"Post bronchodilator Peak Flow, Observed, Min",[1],146 L/min
same,"Post bronchodilator Peak Flow, Observed, Q1",[1],227 L/min
same,"Post bronchodilator Peak Flow, Observed, Q3",[1],425 L/min
same,"Post-BD FEV1 % change from baseline, Max",>=50% AEC reduction at Week 16,57%
same,"Post-BD FEV1 % change from baseline, Mean ± SD",>=50% AEC reduction at Week 16,16.6 ± 35.02%
same,"Post-BD FEV1 % change from baseline, Median",>=50% AEC reduction at Week 16,−1.1%
same,"Post-BD FEV1 % change from baseline, Min",>=50% AEC reduction at Week 16,−6%
same,"Post-BD FEV1 % change from baseline, Q1",>=50% AEC reduction at Week 16,−6%
same,"Post-BD FEV1 % change from baseline, Q3",>=50% AEC reduction at Week 16,57%
same,"Post-BD FEV1 Observed, Max",>=50% AEC reduction at Week 16,2150 mL
same,"Post-BD FEV1 Observed, Mean ± SD",>=50% AEC reduction at Week 16,1593.3 ± 616.95 mL
same,"Post-BD FEV1 Observed, Median",>=50% AEC reduction at Week 16,1700.0 mL
same,"Post-BD FEV1 Observed, Min",>=50% AEC reduction at Week 16,930 mL
same,"Post-BD FEV1 Observed, Q1",>=50% AEC reduction at Week 16,930 mL
same,"Post-BD FEV1 Observed, Q3",>=50% AEC reduction at Week 16,2150 mL
same,"Post-BD FEV1 change from baseline, Max",>=50% AEC reduction at Week 16,780 mL
same,"Post-BD FEV1 change from baseline, Mean ± SD",>=50% AEC reduction at Week 16,220.0 ± 487.54 mL
same,"Post-BD FEV1 change from baseline, Median",>=50% AEC reduction at Week 16,-10.0 mL
same,"Post-BD FEV1 change from baseline, Min",>=50% AEC reduction at Week 16,-110 mL
same,"Post-BD FEV1 change from baseline, Q1",>=50% AEC reduction at Week 16,-110 mL
same,"Post-BD FEV1 change from baseline, Q3",>=50% AEC reduction at Week 16,780 mL
same,"Post bronchodilator Forced Expiratory Flow 25-75% (FEF25-75), % CFB (Percent change from baseline), Max",[2],81%
same,"Post bronchodilator Forced Expiratory Flow 25-75% (FEF25-75), % CFB (Percent change from baseline), Mean ± SD",[2],26.7 ± 49.08%
same,"Post bronchodilator Forced Expiratory Flow 25-75% (FEF25-75), % CFB (Percent change from baseline), Median",[2],12.5%
same,"Post bronchodilator Forced Expiratory Flow 25-75% (FEF25-75), % CFB (Percent change from baseline), Min",[2],−14%
same,"Post bronchodilator Forced Expiratory Flow 25-75% (FEF25-75), % CFB (Percent change from baseline), Q1",[2],−14%
same,"Post bronchodilator Forced Expiratory Flow 25-75% (FEF25-75), % CFB (Percent change from baseline), Q3",[2],81%
same,"Post bronchodilator Forced Expiratory Flow 25-75% (FEF25-75), CFB (Change from baseline), Max",[2],520 mL/s
same,"Post bronchodilator Forced Expiratory Flow 25-75% (FEF25-75), CFB (Change from baseline), Mean ± SD",[2],130.0 ± 350.86 mL/s
same,"Post bronchodilator Forced Expiratory Flow 25-75% (FEF25-75), CFB (Change from baseline), Median",[2],30.0 mL/s
same,"Post bronchodilator Forced Expiratory Flow 25-75% (FEF25-75), CFB (Change from baseline), Min",[2],-160 mL/s
same,"Post bronchodilator Forced Expiratory Flow 25-75% (FEF25-75), CFB (Change from baseline), Q1",[2],-160 mL/s
same,"Post bronchodilator Forced Expiratory Flow 25-75% (FEF25-75), CFB (Change from baseline), Q3",[2],520 mL/s
same,"Post bronchodilator Forced Expiratory Flow 25-75% (FEF25-75), Observed, Max",[2],1160 mL/s
same,"Post bronchodilator Forced Expiratory Flow 25-75% (FEF25-75), Observed, Mean ± SD",[2],810.0 ± 474.45 mL/s
same,"Post bronchodilator Forced Expiratory Flow 25-75% (FEF25-75), Observed, Median",[2],1000.0 mL/s
same,"Post bronchodilator Forced Expiratory Flow 25-75% (FEF25-75), Observed, Min",[2],270 mL/s
same,"Post bronchodilator Forced Expiratory Flow 25-75% (FEF25-75), Observed, Q1",[2],270 mL/s
same,"Post bronchodilator Forced Expiratory Flow 25-75% (FEF25-75), Observed, Q3",[2],1160 mL/s
same,"Post bronchodilator Forced Vital Capacity (FVC), % CFB (Percent change from baseline), Max",[2],36%
same,"Post bronchodilator Forced Vital Capacity (FVC), % CFB (Percent change from baseline), Mean ± SD",[2],9.2 ± 23.24%
same,"Post bronchodilator Forced Vital Capacity (FVC), % CFB (Percent change from baseline), Median",[2],−2.4%
same,"Post bronchodilator Forced Vital Capacity (FVC), % CFB (Percent change from baseline), Min",[2],−6%
same,"Post bronchodilator Forced Vital Capacity (FVC), % CFB (Percent change from baseline), Q1",[2],−6%
same,"Post bronchodilator Forced Vital Capacity (FVC), % CFB (Percent change from baseline), Q3",[2],36%
same,"Post bronchodilator Forced Vital Capacity (FVC), CFB (Change from baseline), Max",[2],900 mL
same,"Post bronchodilator Forced Vital Capacity (FVC), CFB (Change from baseline), Mean ± SD",[2],226.7 ± 585.26 mL
same,"Post bronchodilator Forced Vital Capacity (FVC), CFB (Change from baseline), Median",[2],-60.0 mL
same,"Post bronchodilator Forced Vital Capacity (FVC), CFB (Change from baseline), Min",[2],-160 mL
same,"Post bronchodilator Forced Vital Capacity (FVC), CFB (Change from baseline), Q1",[2],-160 mL
same,"Post bronchodilator Forced Vital Capacity (FVC), CFB (Change from baseline), Q3",[2],900 mL
same,"Post bronchodilator Forced Vital Capacity (FVC), Observed, Max",[2],3400 mL
same,"Post bronchodilator Forced Vital Capacity (FVC), Observed, Mean ± SD",[2],2796.7 ± 527.86 mL
same,"Post bronchodilator Forced Vital Capacity (FVC), Observed, Median",[2],2570.0 mL
same,"Post bronchodilator Forced Vital Capacity (FVC), Observed, Min",[2],2420 mL
same,"Post bronchodilator Forced Vital Capacity (FVC), Observed, Q1",[2],2420 mL
same,"Post bronchodilator Forced Vital Capacity (FVC), Observed, Q3",[2],3400 mL
same,"Post bronchodilator Peak Flow, % CFB (Percent change from baseline), Max",[2],103%
same,"Post bronchodilator Peak Flow, % CFB (Percent change from baseline), Mean ± SD",[2],40.2 ± 55.44%
same,"Post bronchodilator Peak Flow, % CFB (Percent change from baseline), Median",[2],21.5%
same,"Post bronchodilator Peak Flow, % CFB (Percent change from baseline), Min",[2],−3%
same,"Post bronchodilator Peak Flow, % CFB (Percent change from baseline), Q1",[2],−3%
same,"Post bronchodilator Peak Flow, % CFB (Percent change from baseline), Q3",[2],103%
same,"Post bronchodilator Peak Flow, CFB (Change from baseline), Max",[2],161 L/min
same,"Post bronchodilator Peak Flow, CFB (Change from baseline), Mean ± SD",[2],64.3 ± 86.56 L/min
same,"Post bronchodilator Peak Flow, CFB (Change from baseline), Median",[2],38.0 L/min
same,"Post bronchodilator Peak Flow, CFB (Change from baseline), Min",[2],-6 L/min
same,"Post bronchodilator Peak Flow, CFB (Change from baseline), Q1",[2],-6 L/min
same,"Post bronchodilator Peak Flow, CFB (Change from baseline), Q3",[2],161 L/min
same,"Post bronchodilator Peak Flow, Observed, Max",[2],318 L/min
same,"Post bronchodilator Peak Flow, Observed, Mean ± SD",[2],233.0 ± 77.58 L/min
same,"Post bronchodilator Peak Flow, Observed, Median",[2],215.0 L/min
same,"Post bronchodilator Peak Flow, Observed, Min",[2],166 L/min
same,"Post bronchodilator Peak Flow, Observed, Q1",[2],166 L/min
same,"Post bronchodilator Peak Flow, Observed, Q3",[2],318 L/min
